The results in this text go back to PMC6651170, “New HSV-1 Anti-Viral 1′-Homocarbocyclic Nucleoside Analogs with an Optically Active Substituted Bicyclo[2.2.1]Heptane Fragment as a Glycoside Moiety” (Molecules, 2019).

The subject of data set [1] is herpes simplex virus type 1 (HSV-1). The data set can be described thus: microbe, parasite or virus in culture. The settings on record: for IC50: Human alphaherpesvirus 1, Vero, 72 h, read-out: IC50 Herpes Simplex Virus Type 1. The format is cell-based.
Data set [2] is described as follows: in vitro. The note with it: African green monkey.
Data set [3] is described as follows: in vitro.
Data set [4] has as its system human adenovirus type 5 (AdV5). In words: microbe, parasite or virus in culture. The format is cell-based. The note with it: Human mastadenovirus C, Vero, 72 h, read-out: IC50 Human Adenovirus Type 5.
Data set [5] deals with Yellow Fever Virus. The data set can be described thus: microbe, parasite or virus in culture. The format is cell-based. The settings on record: Yellow fever virus, read-out: IC50 Yellow Fever Virus.
Data set [6] concerns Influenza virus (Flu A, strain A/Puerto Rico/8/34 (H1N1)). The data set can be described thus: microbe, parasite or virus in culture. The format is cell-based. The note with it: for IC50: unidentified influenza virus, H1N1, MDCK, 48 h, read-out: IC50 Influenza Virus.
A short description of data set [7]: in vitro. The settings on record: dog.
The test system of data set [8] is Chikungunya Virus. The data set can be described thus: microbe, parasite or virus in culture. The format is cell-based. The note with it: Chikungunya virus, read-out: IC50 Chikungunya Virus.
Data set [9] can be described thus: in vitro. The source holds these as a separate data set.
The test system of data set [10] is Enterovirus 71. In words: microbe, parasite or virus in culture. The format is cell-based. The settings on record: Enterovirus A, read-out: IC50 Enterovirus 71.
Data set [11] can be described thus: in vitro. The source holds these as a separate data set.
Setting [12] is: CC50 (Herpes Simplex Virus Type 1).

What is called IC50 is the concentration that gives 50% inhibition.

Like-named read-outs stand apart in the source and are kept apart here. A value given as a limit tells only on which side of the number the result lay.

With `Nc1nc2c(ncn2COCCO)c(=O)[nH]1` [Acyclovir, reference compound], the 50% inhibitory concentration (IC50) in data set [1] came out at 28 ± 4 µM. Moreover, the CC50 in data set [2] (setting [12]) is above 1130 µM.
Consider `O=c1[nH]c(=O)n(C[C@H]2[C@@H]3CC(O)[C@H]2C[C@@H]3Cl)cc1F` (stereo partly drawn) [Compound 4a, 1-(((1S,2S,4S,7R)-2-Chloro-5-hydroxybicyclo[2.2.1]heptan-7-yl)methyl)-5-fluoropyrimidine-2,4(1H,3H)-dione], for which the CC50 was above 100 µM in data set [3]; above 1040 µM in data set [7]; above 100 µM in data set [9]; above 100 µM in data set [11]; above 1040 µM in [2] (setting [12]); above 1040 µM in data set [2] (CC50 (Human Adenovirus Type 5)). The IC50 in [4] is above 1040 µM; in [5] it was above 100 µM; in [6], 173 ± 21 µM; in [8], above 100 µM; in data set [1], above 1040 µM; in data set [10], above 100 µM.
As to `O=c1ccn(C[C@@H]2[C@@H]3C[C@H](Cl)[C@H]2C[C@H]3O)c(=O)[nH]1` [Compound 4b, 1-(((1S,2S,4S,5R,7R)-2-Chloro-5-hydroxybicyclo[2.2.1]heptan-7-yl)methyl)pyrimidine-2,4(1H,3H)-dione], the CC50 is above 100 µM in data set [3]; above 1110 µM in data set [7]; above 100 µM in [9]; above 100 µM in data set [11]; 1110 µM in [2] (setting [12]); above 1110 µM in [2] (CC50 (Human Adenovirus Type 5)). Moreover, the IC50 in data set [4] is above 1110 µM; in [5], above 100 µM; in data set [6], 369 ± 26 µM; in data set [8] it was above 100 µM; in [1] it was 705 ± 81 µM; in [10], above 100 µM.
On to `Cc1cn(C[C@H]2[C@@H]3CC(O)[C@H]2C[C@@H]3Cl)c(=O)[nH]c1=O` (stereo partly drawn) [Compound 4c, 1-(((1S,2S,4S,7R)-2-Chloro-5-hydroxybicyclo[2.2.1]heptan-7-yl)methyl)-5-methylpyrimidine-2,4(1H,3H)-dione], for which the CC50 in data set [3] was above 100 µM; in [7], above 1050 µM; in [9] it was above 100 µM; in data set [11], above 100 µM; in data set [2] (setting [12]), above 1050 µM; in [2] (CC50 (Human Adenovirus Type 5)), above 1050 µM. Besides, the IC50 in data set [4] is above 1050 µM; in [5], above 100 µM; in [6] it was above 1050 µM; in data set [8], above 100 µM; in data set [1], above 1050 µM; in data set [10], above 100 µM.
Turning to `Nc1ccn(C[C@H]2[C@@H]3CC(O)[C@H]2C[C@@H]3Cl)c(=O)n1` (stereo partly drawn) [Compound 4d, 4-Amino-1-(((1S,2S,4S,7R)-2-chloro-5-hydroxybicyclo[2.2.1]heptan-7-yl)methyl)pyrimidin-2(1H)-one], the CC50 in data set [3] was above 100 µM; in data set [7], above 1110 µM; in [9], above 100 µM; in data set [11], above 100 µM; in [2] (setting [12]), above 1110 µM; in [2] (CC50 (Human Adenovirus Type 5)), above 1110 µM. In addition, the 50% inhibitory concentration (IC50) was above 1110 µM in data set [4]; above 100 µM in [5]; 102 ± 12 µM in [6]; above 100 µM in data set [8]; 727 ± 77 µM in [1]; above 100 µM in data set [10]. In addition, the “activity against influenza virus in words” value in [6] is “active against influenza virus”. Moreover, the “activity against HSV-1 in words” value in data set [1] was “ineffective against HSV-1”.
Consider `OC1C[C@H]2[C@H](Cn3cnc4c(Cl)ncnc43)[C@@H]1C[C@@H]2Cl` (stereo partly drawn) [Compound 5, (1S,4S,5S,7R)-5-Chloro-7-((6-chloro-9H-purin-9-yl)methyl)bicyclo[2.2.1]heptan-2-ol], for which the CC50 was above 100 µM in data set [3]; above 958 µM in [7]; above 100 µM in data set [9]; above 100 µM in [11]; above 830 µM in data set [2] (setting [12]); above 958 µM in data set [2] (CC50 (Human Adenovirus Type 5)). Moreover, the concentration for half-maximal inhibition (IC50) in data set [4] is above 958 µM; in [5], above 100 µM; in data set [6], 254 ± 14 µM; in [8], above 100 µM; in data set [1] it was 69 ± 9 µM; in [10], above 100 µM. In [1], the “activity against HSV-1 in words” value is listed as “active against herpes”.
In the case of `Nc1ncnc2c1ncn2C[C@H]1[C@@H]2CC(O)[C@H]1C[C@@H]2Cl` (stereo partly drawn) [Compound 6a, (1S,4S,5S,7R)-7-((6-Amino-9H-purin-9-yl)methyl)-5-chlorobicyclo[2.2.1]heptan-2-ol], the CC50 in data set [3] is above 100 µM; in data set [7], above 1020 µM; in [9], above 100 µM; in [11], above 100 µM; in data set [2] (setting [12]) it was 975 ± 64 µM; in [2] (CC50 (Human Adenovirus Type 5)) it was 977 ± 103 µM. For the same compound, the IC50 was above 340 µM in [4]; above 100 µM in data set [5]; 328 ± 29 µM in data set [6]; above 100 µM in data set [8]; 102 ± 11 µM in data set [1]; 71 µM in data set [10].
With `OC1C[C@H]2[C@H](Cn3cnc4c(NC5CC5)ncnc43)[C@@H]1C[C@@H]2Cl` (stereo partly drawn) [Compound 6b, (1S,4S,5S,7R)-5-Chloro-7-((6-(cyclopropylamino)-9H-purin-9-yl)methyl)bicyclo[2.2.1]heptan-2-ol], the CC50 in data set [3] was above 100 µM; in data set [7], 752 ± 44 µM; in [9], above 100 µM; in data set [11], above 100 µM; in data set [2] (setting [12]), above 773 µM; in data set [2] (CC50 (Human Adenovirus Type 5)) it was above 899 µM. Moreover, the IC50 is above 899 µM in data set [4]; above 100 µM in data set [5]; 419 ± 51 µM in data set [6]; above 100 µM in data set [8]; 599 ± 64 µM in [1]; above 100 µM in data set [10].
Take `OC1C[C@H]2[C@H](Cn3cnc4c(NC5CCCC5)ncnc43)[C@@H]1C[C@@H]2Cl` (stereo partly drawn) [Compound 6c, (1S,4S,5S,7R)-5-Chloro-7-((6-(cyclopentylamino)-9H-purin-9-yl)methyl)bicyclo[2.2.1]heptan-2-ol]: the CC50 in [3] was above 100 µM; in data set [7] it was 227 ± 19 µM; in [9], above 100 µM; in [11], above 100 µM; in data set [2] (setting [12]), 605 ± 42 µM; in data set [2] (CC50 (Human Adenovirus Type 5)), 824 ± 91 µM. The IC50 in data set [4] was above 276 µM; in [5] it was above 100 µM; in data set [6], above 83 µM; in data set [8] it was above 100 µM; in [1] it was 47 ± 6 µM; in data set [10], 28 ± 16 µM. Also, in data set [1], the “activity against HSV-1 in words” value is listed as “active against herpes”.
Turning to `OC1C[C@H]2[C@H](Cn3cnc4c(NC5CCCCC5)ncnc43)[C@@H]1C[C@@H]2Cl` (stereo partly drawn) [Compound 6d, (1S,4S,5S,7R)-5-Chloro-7-((6-(cyclohexylamino)-9H-purin-9-yl)methyl)bicyclo[2.2.1]heptan-2-ol], the CC50 in [3] is above 100 µM; in data set [7], 42 ± 3 µM; in data set [9] it was above 100 µM; in data set [11], above 100 µM; in data set [2] (setting [12]) it was 521 ± 48 µM; in data set [2] (CC50 (Human Adenovirus Type 5)), 697 ± 75 µM. In addition, the IC50 is 123 ± 14 µM in data set [4]; above 100 µM in data set [5]; above 27 µM in data set [6]; above 100 µM in data set [8]; 21 ± 4 µM in [1]; 28 ± 13 µM in [10]. Moreover, in [1], the “activity against HSV-1 in words” value is “active against herpes”.
For the compound `OC[C@@H](Cc1ccccc1)Nc1ncnc2c1ncn2C[C@H]1[C@@H]2CC(O)[C@H]1C[C@@H]2Cl` (stereo partly drawn) [Compound 6e, (1S,4S,5S,7R)-5-Chloro-7-((6-(((R)-1-hydroxy-3-phenylpropan-2-yl)amino)-9H-purin-9-yl)methyl)bicyclo[2.2.1]heptan-2-ol], the CC50 in data set [3] was above 100 µM; in data set [7] it was 188 ± 22 µM; in data set [9], above 100 µM; in data set [11], above 100 µM; in [2] (setting [12]) it was above 608 µM; in [2] (CC50 (Human Adenovirus Type 5)), above 701 µM. In addition, the concentration for half-maximal inhibition (IC50) is above 701 µM in data set [4]; above 100 µM in data set [5]; above 26 µM in [6]; above 100 µM in data set [8]; 380 ± 46 µM in data set [1]; above 100 µM in data set [10].
`CN1CCN(c2ncnc3c2ncn3C[C@H]2[C@@H]3CC(O)[C@H]2C[C@@H]3Cl)CC1` (stereo partly drawn) [Compound 6f, (1S,4S,5S,7R)-5-Chloro-7-((6-(4-methylpiperazin-1-yl)-9H-purin-9-yl)methyl)bicyclo[2.2.1]heptan-2-ol]: the CC50 in [3] is above 100 µM; in [7], above 796 µM; in [9], above 100 µM; in data set [11], above 100 µM; in data set [2] (setting [12]), above 719 µM; in [2] (CC50 (Human Adenovirus Type 5)) it was above 796 µM. Besides, the IC50 was 105 ± 11 µM in data set [4]; above 100 µM in [5]; 241 ± 30 µM in data set [6]; above 100 µM in [8]; 28 ± 4 µM in data set [1]; above 100 µM in [10]. Besides, the “activity against HSV-1 in words” value in data set [1] was “active against herpes”.
With `CN1CCN(Nc2ncnc3c2ncn3C[C@H]2[C@@H]3CC(O)[C@H]2C[C@@H]3Cl)CC1` (stereo partly drawn) [Compound 6g, (1S,4S,5S,7R)-5-Chloro-7-((6-((4-methylpiperazin-1-yl)amino)-9H-purin-9-yl)methyl)bicyclo[2.2.1]heptan-2-ol], the CC50 in data set [3] was above 100 µM; in data set [7] it was above 766 µM; in data set [9], above 100 µM; in data set [11] it was above 100 µM; in [2] (setting [12]) it was above 766 µM; in data set [2] (CC50 (Human Adenovirus Type 5)), above 766 µM. Further, the IC50 in data set [4] was above 766 µM; in data set [5] it was above 100 µM; in [6] it was above 766 µM; in [8], above 100 µM; in [1], 540 ± 32 µM; in data set [10] it was above 100 µM. Also, the “activity against HSV-1 in words” value in data set [1] was “complete loss of virus inhibition”.
For `CCOC(=O)C1=C[C@@H](OC(CC)CC)[C@H](NC(C)=O)[C@@H](N)C1` [Oseltamivir, reference compound], in data set [6], the IC50 worked out at 0.3 ± 0.1 µM. For the same compound, the CC50 in [7] is above 100 µM.
